Values quoted from earlier work as cited in patent US20120016347A1, “Seroma Control for Surgical Patients” (priority 2010, published 2012).

Tested on: pleural effusions
Conditions: Patz (Chest, 1998)

Compound	Success rate in completely or partially controlling pleural effusions
C[C@H]1c2cccc(O)c2C(O)=C2C(=O)[C@]3(O)C(O)=C(C(N)=O)C(=O)[C@@H](N(C)C)[C@@H]3[C@@H](O)[C@@H]21 [doxyclycline, doxycycline]	79%
bleomycin	72%
